{"source": "patent US8975234B2", "about": "“Anti-bacterial infection, inflammation, and leukemia composition and use thereof” (priority 2011, dated 2015)", "key": {"DPPH scavenging assay": {"test": "DPPH scavenging assay", "protocol": "Test reagents, natural extracts and Vitamin C (ascorbic acid) were dissolved in methanol to make a stock solution 10×. Vitamin C was used as the positive control. 120 μM DPPH solution was prepared. Taken 20 μL of stock reagents, natural extracts and Vitamin C on a 96-well microplate, and methanol was added to make up to the total volume of 100 μL. Control was 100 μL methanol. Each sample was mixed with 100 μL DPPH solution and incubated in the dark for 40 minutes. DPPH level of each well was evaluated by detecting the optical density of each well at 517 nm and the results were shown in Table 5."}, "[1]": {"test_system": "penicillin-binding protein 2a (PBP2a)", "test": "Western blotting analysis of PBP2a expression", "format": "cell-based, Staphylococcus aureus", "details": "40 μg/mL alone", "protocol": "Protein samples (15 μg) were mixed with 5× Sample buffer and boiled in 1× Sample buffer for 5 min and then cooled quickly that proteins be denatured to their constituent polypeptide chains. Equal amounts of protein (15 μg) were separated on 10% SDS-PAGE at 17 mA for 2 hours, and transferred to PVDF membrane using wet transfer procedure. The PVDF membrane was blocked for half hour at room temperature in t-BST buffer containing 5% (w/v) non-fat dry milk to prevent nonspecific binding then probed with primary antibodies (Rabbit-anti-penicillin binding protein, dilution 1:5000) in 5% non-fat dry milk for 16˜18 hours at 4° C. Anti-Groel was used as internal controls (dilution 1:80,000; purchased from Sigma). After washing with t-BST three times for 5 minutes each, the membrane was incubated for half hour at room temperature with horseradish peroxidase (HRP)-conjugated secondary antibodies in 5% (w/v) non-fat dry milk. The membrane was washed three times for 5 minutes each, followed by using an enhanced chemiluminescence system and exposed to film."}, "[2]": {"test_system": "mouse macrophage cell line RAW264.7", "test": "Cell viability assay (alamarBlue)", "format": "cell-based", "details": "50 μg/mL or lower doses, 24 hours", "protocol": "AlamarBlue reagent was used to assess cell viability. RAW264.7 cells (2×10^4 in 200 μL of medium) were seeded on the 96-well plate. After overnight incubation, cells were serum starved in DMEM medium containing 2% Fetal Bovine Serum (FBS) for 3 hours. There were several groups: cells without DMSO or Tellimagrandin II treatment (controls); cell treated with DMSO (control); cells treated with Tellimagrandin II with different concentrations (10, 25, 50, 75 and 100 μM, diluted in DMSO) (test groups). Each group was determined in duplicate.\nAfter 24 hours, the cell medium was removed and discarded, and the cells were resuspended with 180 μL of fresh culture medium. Each cell suspension was added with 20 μL alamarBlue. The plate was then placed in incubator for another 4 hours. After incubation, the absorbance of the medium was measured at 570 and 600 nm, and cell viability was analyzed by using the following formula:\n[formula] • O1: molar extinction coefficient (E) of oxidized alamarBlue at 570 nm • O2: molar extinction coefficient (E) of oxidized alamarBlue at 600 nm • A1: absorbance of test wells at 570 nm • A2: absorbance of test wells at 600 nm • P1: absorbance of positive growth control well at 570 nm • P2: absorbance of positive growth control well at 600 nm"}, "[3]": {"test_system": "LPS-induced PGE2 in RAW264.7 cells", "test": "Prostaglandin E2 (PGE2) assay", "format": "cell-based, mouse", "details": "25 or 50 μM added 30 minutes before LPS", "protocol": "One milliliter (1 mL) of murine macrophage cell line RAW264.7 (4×10^5 cells/mL) was seeded on a 12-well plate overnight. After overnight incubation, cells were serum starved in DMEM medium containing 2% Fetal Bovine Serum (FBS) for 3 hours. Then, Tellimagrandin II was added so that final concentrations of 10, 25 and 50 μM were obtained. Thus, after a 30-min incubation, murine macrophage cells were treated with LPS for 16 h and the cell culture supernatant was collected. Cell-free supernatants were diluted and PGE 2 in culture supernatants were detected by using a PGE2 assay kit (R&D system). The purpose of the study was to evaluate the LPS-induced PGE2 expression by co-treating with Tellimagrandin II."}, "K-562 cells": {"test_system": "K-562 cells", "test": "Apoptosis detection test (TUNEL)", "format": "cell-based, human", "details": "30 μM, 48 hours", "protocol": "TUNEL test was used to detect any DNA fragmentation to determine if cell enters apoptosis process.\nA total of 10 mL cell solution at the concentration of 1×10^6K-562 cells per mL was cultured with 10 cm cell culture dishes in an incubator supplied with 5% CO2 at 37° C. for 30 minutes so that cells could adapt to the environment. Tellimagrandin II solutions of different concentrations were added by order so that the final concentrations are 0, 10, 20, 30, 40 and 50 μM respectively. The solution was placed in incubator with 5% CO2 at 37° C. for 48 hours before being centrifuged at 3,500 rpm at 4° C. for 5 minutes. After removing the supernatant, the cells were rinsed by PBS once. A total of 1 mL 1% Trioxane (diluted from 10% Trioxane solution with PBS) was added and the solution was left to react at room temperature for 30 minutes to one hour. Then, the solution was centrifuged at 3,500 rpm at 4° C. for 5 minutes. After removing the supernatant, 70% ethanol was added and the solution was placed at −20° C. for 16-18 hours for cell fixation.\nAfter cell fixation, the solution was centrifuged at 400 rpm at 4° C. for 10 minutes before removing the supernatant. […] Finally, 1 mL PBS was used to resuspend the cells before BD FACS can was used to detect the fluorescent signal and the quantitative results are in FIG. 15. […]"}}, "data": [{"compound": "O=C(OC1O[C@@H]2COC(=O)c3cc(O)c(O)c(O)c3-c3c(cc(O)c(O)c3O)C(=O)O[C@H]2[C@H](OC(=O)c2cc(O)c(O)c(O)c2)[C@H]1OC(=O)c1cc(O)c(O)c(O)c1)c1cc(O)c(O)c(O)c1", "note": "(some centres unmarked) [Tellimagrandin II]", "values": [{"measurement": "DPPH free-radical scavenging activity", "setting": "DPPH scavenging assay; 20 μg/mL, +FeCl2 (50 μM)", "result": "56.61 ± 4.05", "unit": "%"}, {"measurement": "DPPH free-radical scavenging activity", "setting": "DPPH scavenging assay; 20 μg/mL, −FeCl2", "result": "80.52 ± 0.4", "unit": "%"}, {"measurement": "DPPH free-radical scavenging activity", "setting": "DPPH scavenging assay; 40 μg/mL, +FeCl2 (50 μM)", "result": "57.43 ± 2.49", "unit": "%"}, {"measurement": "DPPH free-radical scavenging activity", "setting": "DPPH scavenging assay; 40 μg/mL, −FeCl2", "result": "79.47 ± 0.2", "unit": "%"}, {"measurement": "expression of penicillin-binding protein 2a (PBP2a)", "setting": "[1]", "result": "inhibit the expression"}, {"measurement": "Cell viability", "setting": "[2]", "result": "not affected significant"}, {"measurement": "expression of PGE2", "setting": "[3]", "result": "significantly reduced the expression of PGE2"}, {"measurement": "DNA fragmentation, TUNEL fluorescent signal", "setting": "K-562 cells", "result": "fluorescent signals were detected"}]}]}
